# Measured values taken from patent publication US10039733B2, “Compositions, method, and kits for treating pulmonary conditions” (NuSirt Sciences, Inc., priority 2013, dated 2018).
# Key:
# NFκB = NFκB protein expression by Western blot in directly treated MLEC; details: theophylline 1 μM, leucine 0.5 mM, resveratrol 200 nM, FIG. 1
# IL1-β = IL1-β secretion from MLEC (ELISA); type: cell-based, mouse; details: MLEC treated directly; theophylline 1 μM, leucine 0.5 mM, resveratrol 200 nM; FIG. 4
# Source text: (§1) Interleukin 1-β, eotaxin, and interleukin 6 were all measured via enzyme-linked immunosorbent assay using specific antibodies for each cytokine (Abcam, Cambridge, Mass.) and a horseradish peroxidase-based second antibody detection system, with chromogenic detection at 450 nm using a microplate reader (Synergy HT, BioTek Instruments, Winooski, Vt.).
# [1] = system: OVA-induced asthmatic mice; assay: BALF cellularity by flow cytometry in OVA-induced asthma; type: in vivo, Balb/c mice; details: theophylline 10 mg/kg IP, baseline 12 g leucine diet
# Protocol: The interactive effects of leucine and theophylline was evaluated in sixty young adult female Balb/c mice that were randomized to the following six groups (n=10/group):
# Group 1 was an untreated control group that was administered a diet containing a baseline level of leucine at 12 g of leucine/day.
# Group 2 was a positive control group that was administered dexamethasone via IP injection and a diet containing a baseline level of leucine at 12 g of leucine/day.
# Group 3 was administered a diet containing a high level of leucine (diet containing leucine at 12 g/day for days 0-13 and 24 g/day beginning on day 14) and no theophylline or dexamethasone.
# Group 4 was administered sub-therapeutic level of theophylline (1 mg/kg theophylline, 10% of therapeutic level) via IP injection and a high leucine diet (diet containing leucine at 12 g/day for days 0-13 and 24 g/day beginning on day 14). […]
# Animals were sacrificed on day 28, subjected to bronchial alveolar lavage and the lavage fluid (BALF, 2 mL) and lungs collected. Airway inflammation was evaluated by assessing cellularity of BALF via flow cytometer; parameters used for cellular differentiation were sized granularity, autofluorescence and the expression of the following markers: CD45, Gr-1, CD11b, CCR3, B220 and CD3. […]
# IL 6 [2] = assay: cellular IL 6 content in MLEC (ELISA); type: cell-based, mouse; details: MLEC treated directly; theophylline 1 μM, leucine 0.5 mM, resveratrol 200 nM; FIG. 7
# Protocol: (§2) Cells were grown in Dulbecco's modified eagle's medium (DMEM) containing a growth factor supplement (Cell Biologics #M1 166) which included 5% fetal bovine serum (FBS), heparin, EGF, hydrocortisone, L-glutamine and antibiotics at 37° C. in 5% CO2.
# as §1
# (§3) Following treatment, western blots or ELISA assays were performed on the MLEC to determine the level of various indicators of airway diseases, such as NFκB protein expression, eotaxin secretion, IL1-β secretion, cellular IL6 content or secretion, adiponectin receptor 1 protein expression, and adiponectin receptor 2 protein expression.
# eotaxin = eotaxin secretion from MLEC (ELISA); type: cell-based, mouse; details: MLEC treated directly; theophylline 1 μM, leucine 0.5 mM, resveratrol 200 nM; FIG. 5
# Source text: as §1
# IL 6 [3] = assay: IL 6 secretion from MLEC (ELISA); type: cell-based, mouse; details: positive control, FIG. 8
# Protocol: as §2, §1, §3
Molecule,NFκB protein expression relative to control (NFκB),IL1-β secretion (IL1-β),eosinophil number in BALF ([1]; FIG. 15),"T-cell number in BALF ([1]; trend not significant (0.05<p<0.1), FIG. 16)",cellular expression of IL 6 (IL 6 [2]),eotaxin secretion into the media (eotaxin),IL 6 secretion (IL 6 [3])
Cn1c(=O)c2[nH]cnc2n(C)c1=O [theophylline],no independent effect,no significant independent effect,modest significant decreases,modestly reduced,unaffected,,
TNFα,,significant increase,,,,no significant effect,significant increase
